What was measured:
healthy dogs = assay: Rectal temperature change from baseline; type: in vivo, dogs (Beagles); conditions: SC 0.4 mg/kg, n=6, P<0.05
dogs = conditions: cited from earlier work
[1] = system: dogs undergoing soft tissue surgery; conditions: 0.4 mg/kg IV, ref Gomes et. al., 2020; cited from earlier work
[2] = after SC and IM administration at 0.25 mg/kg, dogs; ref Pfeffer et al., 1980; cited from earlier work
[3] = 0.4 mg/kg IV, ref Wegner et al., 2008

SMILES: Oc1ccc2c(c1)[C@@]13CCCC[C@@]1(O)[C@@H](C2)N(CC1CCC1)CC3 [butorphanol]
- statistically significant decrease in rectal temperature compared to baseline (healthy dogs): did not occur
- thermal antinociception compared to hydromorphone at 0.1 mg/kg IV (dogs; [3]): equianalgesic peak effects and duration
- time of peak effect, thermal antinociception (dogs; [3]): 1 h
- time of peak antinociceptive effect after IV administration (dogs; IV, ref Wegner et al 2008): 60 min
- analgesia in clinical trial [1]: insufficient analgesia
- CMAX range [2]: 25 to 33 ng/mL
- terminal half-life [2]: 1.5 to 1.7 h

Source: paper PMC10949855 (Journal of veterinary pharmacology and therapeutics, 2022)
